# Assay results reported in patent publication US20180244611A1, “Modulators of the Cystic Fibrosis Transmembrane Conductance Regulator Protein and Methods of Use” (AbbVie S.à.r.l., priority 2017, published 2018).
# Assays:
# F508delCFTR [1] = biological target: T1, F508delCFTR (Homo sapiens, UniProt P13569, DEL508-508); experiment: Cell Surface Expression-Horse Radish Peroxidase (CSE-HRP) assay, test compound without co-corrector; format: cell-based; conditions: for Emax: maximum at any tested concentration, normalized to positive control, without co-corrector; for EC50: test compound without co-corrector;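 as to Emax: percent of on-plate 2 µM positive control corrector response over DMSO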
# T1 construct: expressed in transfected cells; host or cells: CFBE41o- human lung-derived epithelial cells (CFBE41o-F508delCFTR-HRP), doxycycline-inducible
# Experimental: (§1) Cell Surface Expression-Horse Radish Peroxidase (CSE-HRP) Assay
# (§2) A cellular assay for measuring the F508delCFTR cell surface expression after correction with test compounds either without or with a co-corrector (2 μM of 3-[(2R,4R)-4-({[1-(2,2-difluoro-1,3-benzodioxol-5-yl)cyclopropyl]carbonyl}amino)-7-methoxy-3,4-dihydro-2H-chromen-2-yl]benzoic acid), was developed in human lung derived epithelial cell line (CFBE41o-) (Veit G et al, (2012) Mol Biol Cell. 23(21): 4188-4202). The development was achieved by expressing the F508delCFTR mutation along with a horseradish peroxidase (HRP) in the fourth exofacial loop, and then measuring the HRP activity using luminescence readout from these cells, CFBE41o-F508delCFTR-HRP, that were incubated overnight with the test corrector compounds, either without or with the co-corrector. For this primary assay, the CFBE41o-F508delCFTR-HRP cells were plated in 384-well plates (Greiner Bio-one; Cat 781080) at 4,000 cells/well along with 0.5 μg/mL doxycycline to induce the F508delCFTR-HRP expression and further incubated at 37° C., 5% CO2 for 72 hours. The test compounds were then added either without or with a co-corrector at the required concentrations and further incubated for 18-24 hours at 33° C. The highest concentration tested was 20 μM with an 8-point concentration response curve using a 3-fold dilution in both the test compound without or with the co-corrector. Three replicate plates were run to determine one EC50. All plates contained negative controls (dimethyl sulfoxide, DMSO) and positive control (2 μM of 3-[(2R,4R)-4-({[1-(2,2-difluoro-1,3-benzodioxol-5-yl)cyclopropyl]carbonyl}amino)-7-methoxy-3,4-dihydro-2H-chromen-2-yl]benzoic acid) as well as on-plate concentration response of the positive control. Post incubation, the plates were washed 5× times with Dulbecco's phosphate buffered saline (DPBS), followed by the addition of the HRP substrate, luminol (50 μL), and measuring the HRP activity using luminescence readout on EnVision® Multilabel Plate Reader (Perkin Elmer; product number 2104-0010). The raw counts from the experiment were analyzed using Accelrys® Assay Explorer v3.3.
# (§3) Z′ greater than 0.5 was used as passing quality control criteria for the plates.
# (§4) 1−[3*SDPositive Control+3*SDNegative Control/Absolute (MeanPositive Control−MeanNegative Control)]
# (§5) wherein “SD” is standard deviation.
# (§6) The % activity measured at each of the 8 test concentrations of the test compound added either without or with a co-corrector (2 μM of 3-[(2R,4R)-4-({[1-(2,2-difluoro-1,3-benzodioxol-5-yl)cyclopropyl]carbonyl}amino)-7-methoxy-3,4-dihydro-2H-chromen-2-yl]benzoic acid) was normalized to the on-plate positive control using the following formulae:
# % activity (Test compound without co-corrector)=[(test compound without co-corrector response−DMSO response)/(positive control response−DMSO response)]*100%
# (§7) The maximum % activity achieved for the test compound either without or with a co-corrector at any tested concentration is presented in Table 1 along with the respective EC50's calculated using the following general sigmoidal curve with variable Hill slope equation (described as Model 42 in the Accelrys® Assay Explorer v3.3 software):
# (§8) General sigmoidal curve with concentration, response, top, bottom, EC50 and Hill slope. This model describes a sigmoidal curve with an adjustable baseline, a. The equation can be used to fit curves where response is either increasing or decreasing with respect to the independent variable, “x”.
# “x” is a concentration of drug under test. “y” is the response. “a” is the maximum response, and “d” is the minimum response “c” is the inflection point (EC50) for the curve. That is, “y” is halfway between the lower and upper asymptotes when x=c. “b” is the slope-factor or Hill coefficient. The sign of b is positive when the response increases with increasing dose and is negative when the response decreases with increasing dose (inhibition). The data is presented with the qualifiers shown below: […]
# F508delCFTR [2] = biological target: T1, F508delCFTR; experiment: Cell Surface Expression-Horse Radish Peroxidase (CSE-HRP) assay, test compound with co-corrector; format: cell-based; conditions: with 2 μM co-corrector; for Maximum % activity (with co-corrector): maximum at any tested concentration, normalized to positive control;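 as to Maximum % activity (with co-corrector): percent of 2 µM positive control corrector over DMSO; co-corrector is that same compound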
# Experimental: as §1, §2, §3, §4, §5, §6
# activity (Test compound with co-corrector)=[(test compound with co-corrector response−DMSO response)/(positive control response−DMSO response)]*100
# as §7, §8
# “x” is a concentration of drug under test. “y” is the response. “a” is the maximum response, and “d” is the minimum response “c” is the inflection point (EC50) for the curve. That is, “y” is halfway between the lower and upper asymptotes when x=c. “b” is the slope-factor or Hill coefficient. The sign of b is positive when the response increases with increasing dose and is negative when the response decreases with increasing dose (inhibition).
# T1 sequence (P13569 with tags, fused parts or gaps DEL508-508): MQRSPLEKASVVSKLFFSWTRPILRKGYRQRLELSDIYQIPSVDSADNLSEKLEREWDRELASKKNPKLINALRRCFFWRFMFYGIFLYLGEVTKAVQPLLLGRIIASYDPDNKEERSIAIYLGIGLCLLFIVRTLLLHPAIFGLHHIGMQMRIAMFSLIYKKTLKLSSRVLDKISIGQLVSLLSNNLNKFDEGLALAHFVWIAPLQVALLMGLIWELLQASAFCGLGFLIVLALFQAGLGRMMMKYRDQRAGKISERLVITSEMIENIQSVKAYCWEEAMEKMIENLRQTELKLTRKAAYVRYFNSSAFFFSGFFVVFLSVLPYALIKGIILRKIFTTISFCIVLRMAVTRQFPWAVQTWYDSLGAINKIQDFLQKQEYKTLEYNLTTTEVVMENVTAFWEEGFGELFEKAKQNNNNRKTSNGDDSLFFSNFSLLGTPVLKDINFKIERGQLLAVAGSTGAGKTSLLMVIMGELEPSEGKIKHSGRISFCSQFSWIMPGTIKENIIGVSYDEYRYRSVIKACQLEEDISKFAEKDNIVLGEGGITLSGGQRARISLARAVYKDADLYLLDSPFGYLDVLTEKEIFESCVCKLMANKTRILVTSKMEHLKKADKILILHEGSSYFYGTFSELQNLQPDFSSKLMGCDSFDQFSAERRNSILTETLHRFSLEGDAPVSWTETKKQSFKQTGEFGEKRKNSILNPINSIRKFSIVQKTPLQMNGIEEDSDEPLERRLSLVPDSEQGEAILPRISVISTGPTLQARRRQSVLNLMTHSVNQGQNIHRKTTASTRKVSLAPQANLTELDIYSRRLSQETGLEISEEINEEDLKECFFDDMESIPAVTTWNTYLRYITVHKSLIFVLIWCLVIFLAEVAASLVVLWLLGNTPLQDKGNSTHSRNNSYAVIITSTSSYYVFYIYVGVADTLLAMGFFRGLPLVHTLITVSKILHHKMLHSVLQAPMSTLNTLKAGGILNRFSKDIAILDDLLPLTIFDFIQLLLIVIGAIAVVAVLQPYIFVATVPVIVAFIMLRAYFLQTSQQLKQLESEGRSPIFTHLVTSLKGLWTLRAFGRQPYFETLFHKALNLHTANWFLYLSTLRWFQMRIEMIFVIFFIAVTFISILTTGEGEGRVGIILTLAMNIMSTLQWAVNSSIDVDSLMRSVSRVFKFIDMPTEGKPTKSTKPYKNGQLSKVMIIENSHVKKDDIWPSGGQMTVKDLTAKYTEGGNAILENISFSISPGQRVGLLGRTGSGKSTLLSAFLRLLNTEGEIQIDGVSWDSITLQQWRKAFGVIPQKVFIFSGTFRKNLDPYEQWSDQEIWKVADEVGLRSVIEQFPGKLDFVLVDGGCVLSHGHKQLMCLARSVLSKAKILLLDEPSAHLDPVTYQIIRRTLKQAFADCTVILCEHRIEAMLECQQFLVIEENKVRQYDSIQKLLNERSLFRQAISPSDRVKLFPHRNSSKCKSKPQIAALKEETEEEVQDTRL
Emax (F508delCFTR [1]) [%],EC50 (F508delCFTR [1]) [µM],Maximum % activity (with co-corrector) (F508delCFTR [2]),EC50 (F508delCFTR [2]) [µM],SMILES
≥ 150,3 to 10,+++ (≥350),3 to 10,"C[C@]1(C(=O)NS(=O)(=O)c2cccc3ccccc23)CCc2c1ccc1c2OCO1 [Example I-20, (6S)-6-methyl-N-(naphthalene-1-sulfonyl)-7,8-dihydro-2H,6H-indeno[4,5-d][1,3]dioxole-6-carboxamide]"
≥ 150,3 to 10,+++ (≥350),3 to 10,"C[C@@]1(C(=O)NS(=O)(=O)c2cccc3ccccc23)CCc2c1ccc1c2OCO1 [Example I-21, (6R)-6-methyl-N-(naphthalene-1-sulfonyl)-7,8-dihydro-2H,6H-indeno[4,5-d][1,3]dioxole-6-carboxamide]"
≥ 150,3 to 10,+++ (≥350),< 3,"COc1ccc2c(c1)[C@@](C)(C(=O)NS(=O)(=O)c1cccc3ccccc13)CC2 [Example I-22, (1S)-6-methoxy-1-methyl-N-(naphthalene-1-sulfonyl)-2,3-dihydro-1H-indene-1-carboxamide]"
≥ 150,3 to 10,+++ (≥350),< 3,"COc1ccc2c(c1)[C@](C)(C(=O)NS(=O)(=O)c1cccc3ccccc13)CC2 [Example I-23, (1R)-6-methoxy-1-methyl-N-(naphthalene-1-sulfonyl)-2,3-dihydro-1H-indene-1-carboxamide]"
≥ 150,3 to 10,+++ (≥350),< 3,"O=C(NS(=O)(=O)c1cccc2ccccc12)C1CCCc2c1ccc1c2OCO1 (centres unmarked) [Example I-24, N-(naphthalene-1-sulfonyl)-6,7,8,9-tetrahydro-2H-naphtho[1,2-d][1,3]dioxole-6-carboxamide]"
≥ 150,< 3,+++ (≥350),< 3,"C[C@@]1(C(=O)NS(=O)(=O)c2cccc3ccccc23)CCc2cccc(Cl)c21 [Example I-27, (1R)-7-chloro-1-methyl-N-(naphthalene-1-sulfonyl)-2,3-dihydro-1H-indene-1-carboxamide]"
≥ 150,< 3,+++ (≥350),< 3,"CCC1(C(=O)NS(=O)(=O)c2cccc3ccccc23)CCc2c(Br)ccc(OC)c21 (centres unmarked) [Example I-28, 4-bromo-1-ethyl-7-methoxy-N-(naphthalene-1-sulfonyl)-2,3-dihydro-1H-indene-1-carboxamide]"
≥ 150,< 3,+++ (≥350),< 3,"O=C(NS(=O)(=O)c1cccc2ccccc12)C1(CC2CC2)CCc2c(Cl)cccc21 (centres unmarked) [Example I-29, 4-chloro-1-(cyclopropylmethyl)-N-(naphthalene-1-sulfonyl)-2,3-dihydro-1H-indene-1-carboxamide]"
50 to 150,< 3,+++ (≥350),< 3,"CCC1(C(=O)NS(=O)(=O)c2cccc3cccc(O)c23)CCc2c(Cl)cccc21 (centres unmarked) [Example I-31, 4-chloro-1-ethyl-N-(8-hydroxynaphthalene-1-sulfonyl)-2,3-dihydro-1H-indene-1-carboxamide]"
≥ 150,< 3,+++ (≥350),< 3,"CCOc1ccc(Br)c2c1CCCC2C(=O)NS(=O)(=O)c1cccc2ccccc12 (centres unmarked) [Example I-32, 8-bromo-5-ethoxy-N-(naphthalene-1-sulfonyl)-1,2,3,4-tetrahydronaphthalene-1-carboxamide]"
≥ 150,< 3,+++ (≥350),< 3,"COc1ccc(C2CCC2)c2c1CCCC2C(=O)NS(=O)(=O)c1cccc2ccccc12 (centres unmarked) [Example I-33, 8-cyclobutyl-5-methoxy-N-(naphthalene-1-sulfonyl)-1,2,3,4-tetrahydronaphthalene-1-carboxamide]"
